According to patent publication US20250297116A1, “PRECURSOR COMPOUNDS FOR MOLECULAR COATINGS” (Apeel Technology, Inc., priority 2015, published 2025):

Tests used:
[1] = system: edible substrates (blueberries, bananas, strawberries, lemons, avocados, and limes); assay: Coating studies on edible substrates: mass loss over time and visible residues; conditions: coated edible substrates
Protocol: For these studies, mixtures (which were typically solid but in some cases were oils) comprising compounds of Formula I and/or compounds of Formula II and/or other additives (e.g., 1-monoacylglycerides, fatty acids, esters, amides, amines, thiols, carboxylic acids, ethers, aliphatic waxes, alcohols, salts (inorganic and organic), or combinations thereof) were first formed. The mixtures were then dissolved in a solvent (e.g., either ethanol or a water and ethanol mixture, for instance in a 1:2 water:ethanol ratio or lower) to form a solution, from which coatings were formed over a variety of edible substrates (blueberries, bananas, strawberries, lemons, avocados, and limes). Details about the specific formulations used and procedures for the forming of the coatings are described below for illustrative purposes with reference to FIGS. 2-18. The substrates were then examined for the presence of visible residues on the surface and tested for percent mass loss over time, and were compared to control samples without the coatings. A variety of different compositions of mixtures (e.g., solid mixtures) were used to form coatings on a variety of edible substrates, where the specific compositions and coating procedures are described below with reference to FIGS. 2-18. Some of the compositions were substantially pure (e.g., at least 90% or at least 95% pure) 2-monoacylglyceride compounds (e.g., compounds of Formula I). For example, coatings were formed from compositions that were substantially pure PA-2G, as well as from compositions that were substantially pure SA-2G. Some of the compositions were substantially pure (e.g., at least 90% or at least 95% pure) 1-monoacylglyceride compounds (e.g., compounds of Formula II). For example, coatings were formed from compositions that were substantially pure PA-1G, compositions that were substantially pure OA-1G, and compositions that were substantially pure SA-1G. Some of the compositions included a compound of Formula I and an additive, where for each of these compositions various ratios of the compound of Formula I to the additive were tested. For example, coatings were formed from compositions which included the combinations of a compound of Formula I and an additive as listed in Table 1 below. Additives included, for example, a saturated or unsaturated compound of Formula II, a saturated or unsaturated fatty acid, an ethyl ester, and/or a second compound of Formula I which is different from the (first) compound of Formula I (e.g., has a different length carbon chain).

finger limes = assay: Average daily mass loss rate and residues of coated finger limes; conditions: bag coated, 10 mg/mL in ethanol, over several days, 24 finger limes per group, 23-27°C, 40-55% humidity
Protocol: FIGS. 2-18 illustrate the effects of coating a variety of edible substrates with the compositions described herein. To form the coatings, solid mixtures of the compositions were first fully dissolved in ethanol at a concentration of 10 mg/mL (except where a different concentration is specified) to form a solution. The solution was then applied to the substrate either by spraying or dip coating, as detailed for each of the substrates below. The substrates were then dried on drying racks under ambient conditions (temperature in the range of 23° C.-27° C., humidity in the range of 40%-55%) until all of the solvent had evaporated, allowing the coatings to form over the substrates. […] For all mixtures described, PA was purchased from Sigma Aldrich, PA-1G was purchased from Tokyo Chemical Industry Co, PA-2G was prepared following the method of Example 1 above, SA was purchased from Sigma Aldrich, SA-1G was purchased from Alfa Aesar, SA-2G was prepared following the method of Example 3 above, MA was purchased from Sigma Aldrich, MA-1G was purchased from Tokyo Chemical Industry Co, OA was purchased from Sigma Aldrich, and EtPA was purchased from Sigma Aldrich.
FIG. 11 is a graph showing average daily mass loss rates for finger limes coated with various mixtures of PA-2G (compound of Formula I) and PA-1G (additive) measured over the course of several days. […]

With `CCCCCCCC/C=C\CCCCCCCC(=O)OCC(O)CO` (centres unmarked) [OA-1G, 2,3-dihydroxypropan-1-yl (9Z)-Octadecenoate] the “reduction in mass loss versus uncoated control samples” value [1] was “at most a nominal reduction in mass loss”.

`CCCCCCCCCCCCCC(=O)OCC(O)CO` (centres unmarked) [MA-1G, 2,3-dihydroxypropan-1-yl tetradecanoate] was tested, and the “reduction in mass loss versus uncoated control samples” value [1] was “at most a nominal reduction in mass loss”.

In the case of `CCCCCCCCCCCCCCCC(=O)OCC(O)CO` (centres unmarked) [PA-1G, 2,3-dihydroxypropan-1-yl palmitate], the “average daily mass loss rate” value (finger limes) is reported as “over 4 % per day” and the “reduction in mass loss versus uncoated control samples” value [1] is reported as “at most a nominal reduction in mass loss”.

`CCCCCCCCCCCCCCCCCC(=O)OC(CO)CO` [SA-2G, 1,3-dihydroxypropan-2-yl octadecanoate] was tested, and the “reduction in mass loss versus uncoated control samples” value [1] was “at most a nominal reduction in mass loss”.

In the case of `CCCCCCCCCCCCCCCC(=O)OC(CO)CO` [PA-2G, 1,3-dihydroxypropan-2-yl palmitate], the “average daily mass loss rate” value (finger limes) is reported as “under 4 % per day” and the “reduction in mass loss versus uncoated control samples” value [1] is reported as “at most a nominal reduction in mass loss”.

In the case of `CCCCCCCCCCCCCCCCCC(=O)OCC(O)CO` (centres unmarked) [SA-1G, 2,3-dihydroxypropan-1-yl octadecanoate], the “reduction in mass loss versus uncoated control samples” value [1] is reported as “at most a nominal reduction in mass loss”.
